Literature values as cited in PMC9959244, “Revisiting the Solubility–Permeability Relationship with Hydrophobic Drug Umifenovir in Pluronic Solutions: Impact of pH and Co-Solvent” (Pharmaceutics, 2023).
Where two headings read alike, the source gives them in different places.

How the values were obtained:
[1] = design: method as in doi:10.1016/S1773-2247(07)50022-5; details: cited from earlier work
[2] = design: method as in PMID 33926020; details: kneaded ternary complex with β-cyclodextrin and 1% poloxamer 188; cited from earlier work

CCOC(=O)c1c(CSc2ccccc2)n(C)c2cc(Br)c(O)c(CN(C)C)c12.Cl [arbidol hydrochloride]
Increase of dissolution at 3 min vs pure compound ([1]; solid dispersion with PEG 4000): 14.0 fold
Percent concentration after 3 min of dissolution ([1]; solid dispersion with PEG 4000): 53.6%
Increase of dissolution at 3 min vs pure compound ([1]; solid dispersion with PEG 8000): 15.4 fold
Percent concentration after 3 min of dissolution ([1]; solid dispersion with PEG 8000): 59.0%
Solubility increase [2]: 13.1 fold
